Test results as given in PubChem BioAssay (NCI).
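In this assay, cells in 96-well plates receive the compound at five concentrations for 48 hours. Endpoints are linearly interpolated between the surrounding concentrations. Here, GI50 denotes the concentration required for 50% inhibition of growth. TGI is the concentration that stops growth completely.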

Columns and labels:
Test in all cases: DTP human tumour cell line panel, 48 h
[1] = test system: CAKI-1 renal
[2] = test system: OVCAR-4 ovarian
[3] = test system: NCI/ADR-RES ovarian
[4] = test system: SNB-19 CNS
[5] = test system: NCI-H23 lung
[6] = test system: OVCAR-8 ovarian
[7] = test system: A549 NSCLC
[8] = test system: HT29 colon
[9] = test system: HCT-116 colon
[10] = test system: K-562 leukemia
[11] = test system: SF-295 CNS
[12] = test system: SK-OV-3 ovarian
[13] = test system: MOLT-4 leukemia
[14] = test system: EKVX NSCLC
[15] = test system: KM12 colon
[16] = test system: MDA-MB-231 breast
[17] = test system: A498 renal
[18] = test system: SK-MEL-28 melanoma
[19] = test system: PC-3 prostate
[20] = test system: SK-MEL-2 melanoma
[21] = test system: HS 578T breast
[22] = test system: MALME-3M melanoma
[23] = test system: MCF7 breast
[24] = test system: SK-MEL-5 melanoma
[25] = test system: SNB-75 CNS
[26] = test system: HCC-2998 colon
[27] = test system: OVCAR-3 ovarian
[28] = test system: RXF 393 renal
[29] = test system: MDA-MB-468 breast
[30] = test system: UO-31 renal
[31] = test system: COLO 205 colon
[32] = test system: NCI-H226 lung
[33] = test system: UACC-257 melanoma
[34] = test system: HOP-92 NSCLC
[35] = test system: CCRF-CEM leukemia
[36] = test system: SN12C renal
[37] = test system: HCT-15 colon
[38] = test system: SF-268 CNS
[39] = test system: MDA-MB-435
[40] = test system: M14 melanoma
[41] = test system: BT-549 breast
[42] = test system: HL-60(TB) leukemia
[43] = test system: DU-145 prostate
[44] = test system: RPMI-8226 leukemia
[45] = test system: OVCAR-5 ovarian
[46] = test system: IGROV1 ovarian
[47] = test system: LOX IMVI melanoma
[48] = test system: TK-10 renal
[49] = test system: 786-0 renal
[50] = test system: ACHN renal
[51] = test system: U251 CNS
[52] = test system: UACC-62 melanoma
[53] = test system: HOP-62 NSCLC
[54] = test system: SF-539 CNS
[55] = test system: T-47D breast

`Nc1cc(-c2c[nH]c3ccc(Cl)cc23)nc2cc(-c3c[nH]c4ccccc34)nn12` gave a GI50 [1] of 1.99 µM, a TGI [1] of 5.28 µM and a GI50 [2] of 3.65 µM. It also gave a TGI [2] of 17.1 µM, a GI50 [3] of 3.45 µM and a TGI [3] of 14.7 µM. The GI50 [4] was 2.95 µM, the TGI [4] was 10.7 µM and the GI50 [5] was 2.23 µM. It also gave a TGI [5] of 5.5 µM, a GI50 [6] of 3.19 µM and a TGI [6] of 17.3 µM. The GI50 [7] was 2.76 µM, the TGI [7] was 12.1 µM and the GI50 [8] was 2.04 µM. It also gave a TGI [8] of 4.62 µM, a GI50 [9] of 1.67 µM and a TGI [9] of 3.12 µM. The GI50 [10] was 2.15 µM, the TGI [10] was 5.7 µM and the GI50 [11] was 1.81 µM. For the same molecule, the TGI [11] was 3.61 µM, the GI50 [12] was 6.25 µM and the TGI [12] was 20 µM. The GI50 [13] was 1.86 µM, the TGI [13] was 5.04 µM and the GI50 [14] was 2.44 µM. For the same molecule, the TGI [14] was 8.51 µM, the GI50 [15] was 2.02 µM and the TGI [15] was 4.27 µM. The GI50 [16] was 1.96 µM, the TGI [16] was 3.6 µM and the GI50 [17] was 2.09 µM. For the same molecule, the TGI [17] was 7.69 µM, the GI50 [18] was 1.87 µM and the TGI [18] was 4.23 µM. For the same molecule, the GI50 [19] was 2.59 µM, the TGI [19] was 7.89 µM and the GI50 [20] was 2.28 µM. It also gave a TGI [20] of 6.05 µM, a GI50 [21] of 3.25 µM and a TGI [21] of 16.4 µM. The GI50 [22] was 1.78 µM, the TGI [22] was 3.23 µM and the GI50 [23] was 1.83 µM. It also gave a TGI [23] of 3.96 µM, a GI50 [24] of 2.05 µM and a TGI [24] of 4.42 µM. It also gave a GI50 [25] of 1.71 µM, a TGI [25] of 9.69 µM and a GI50 [26] of 1.86 µM. The TGI [26] was 3.6 µM, the GI50 [27] was 2.9 µM and the TGI [27] was 10.5 µM. For the same molecule, the GI50 [28] was 2.23 µM, the TGI [28] was 6.61 µM and the GI50 [29] was 1.45 µM. The TGI [29] was 3.2 µM, the GI50 [30] was 2.59 µM and the TGI [30] was 10.4 µM. For the same molecule, the GI50 [31] was 1.75 µM, the TGI [31] was 3.6 µM and the GI50 [32] was 3.52 µM. The TGI [32] was 28 µM, the GI50 [33] was 2.99 µM and the TGI [33] was 12.2 µM. It also gave a GI50 [34] of 2.1 µM, a TGI [34] of 5.65 µM and a GI50 [35] of 2.99 µM. The TGI [35] was 9.39 µM, the GI50 [36] was 3.63 µM and the TGI [36] was 14.3 µM. It also gave a GI50 [37] of 1.61 µM, a TGI [37] of 3.24 µM and a GI50 [38] of 2.75 µM. It also gave a TGI [38] of 12.7 µM, a GI50 [39] of 2.42 µM and a TGI [39] of 7.27 µM. The GI50 [40] was 1.85 µM, the TGI [40] was 4.17 µM and the GI50 [41] was 4.98 µM. The TGI [41] was 17.9 µM, the GI50 [42] was 2.09 µM and the TGI [42] was 7.43 µM. It also gave a GI50 [43] of 3.56 µM, a TGI [43] of 12.9 µM and a GI50 [44] of 2.29 µM. For the same molecule, the TGI [44] was 6.98 µM, the GI50 [45] was 1.9 µM and the TGI [45] was 4.32 µM. The GI50 [46] was 3.34 µM, the TGI [46] was 12.7 µM and the GI50 [47] was 1.75 µM. The TGI [47] was 3.22 µM, the GI50 [48] was 2.9 µM and the TGI [48] was 13.3 µM. For the same molecule, the GI50 [49] was 1.67 µM, the TGI [49] was 3.67 µM and the GI50 [50] was 2.76 µM. It also gave a TGI [50] of 7.77 µM, a GI50 [51] of 1.8 µM and a TGI [51] of 4.22 µM. For the same molecule, the GI50 [52] was 1.72 µM, the TGI [52] was 3.55 µM and the GI50 [53] was 3.1 µM. For the same molecule, the TGI [53] was 10.7 µM, the GI50 [54] was 1.81 µM and the TGI [54] was 3.47 µM. For the same molecule, the GI50 [55] was 2.61 µM.
`O=c1c2ccccc2sc2c(NCCCNCCO)nc3ccccc3c12` gave a GI50 [29] of 1.52 µM and a TGI [29] of 3.12 µM.
With `CC[C@H](C)[C@H](NC(=O)[C@H]1CCCCN1C)C(=O)N(C)[C@H](C[C@@H](OC(C)=O)c1cccc(C(=O)N[C@@H](Cc2ccccc2)C[C@H](C)C(=O)OC)n1)C(C)C` the GI50 [29] was 0.000917 µM.
Work on `CCOC(=O)c1cc(C(=O)c2ccc(OC)cc2)n2ccc(/C=C/c3cc[n+](CC(=O)c4ccc(OC)cc4)cc3)cc12` yielded a GI50 [29] of 1.71 µM and a TGI [29] of 3.63 µM.
`Oc1c(Cl)cc(Cl)c(Cl)c1CNCCNCc1c(O)c(Cl)cc(Cl)c1Cl` was tested, and the GI50 [29] was 0.917 µM and the TGI [29] was 5.85 µM.
With `COc1cc2c(c(OC)c1OC)-c1ccc(OC)c(=O)cc1C(NC(=O)COc1ccccc1)CC2` (centres undefined) the GI50 [29] was < 0.01 µM and the TGI [29] was 59.4 µM.
`O=C(N/N=C/c1ccc([N+](=O)[O-])o1)c1[nH]c2ccc(Br)cc2c1-c1ccccc1` gave a GI50 [29] of 0.304 µM and a TGI [29] of 1.7 µM.
Molecule `Cc1ccc(O)c(NC(=O)c2cccc(Nc3ccnc(C(F)(F)F)c3)c2)c1` has a GI50 [29] of 3.19 µM and a TGI [29] of 54.9 µM.
Molecule `Fc1ccc(-c2cc3nc(C(Cl)Cl)nc(-c4ccco4)n3n2)cc1` has a GI50 [29] of 0.242 µM and a TGI [29] of 0.793 µM.
`Cc1c(C)n(CCCN2CCN(C)CC2)c2ccc(Oc3cccc(C(=O)N4CCN(CCc5ccc(F)cc5)CC4)c3)cc12` showed a GI50 [29] of 1.16 µM and a TGI [29] of 2.47 µM.
In the case of `CCOC(=O)c1c(NC(=O)c2ccc(C(F)(F)F)cc2)sc2c(CN3CCN(C)CC3)c(O)ccc12`, the GI50 [29] is reported as 1.78 µM and the TGI [29] is reported as 3.93 µM.
Molecule `COc1cc(/C=C/c2cc(/C=C/c3ccc(O)c(OC)c3)n(C(=O)c3ccc(Cl)cc3)n2)ccc1O` has a GI50 [29] of 2.64 µM and a TGI [29] of 7.9 µM.
`C=CN(C(=O)N1CCN(c2cc3c(cc2F)c(=O)c(C(=O)O)cn3C2CC2)CC1)c1nc(-c2ccc(OC)cc2)cs1` showed a GI50 [29] of 3.07 µM and a TGI [29] of 28 µM.
For `CCOC(=O)C1=CCCC[C@H]1S(=O)(=O)Nc1ccc(F)cc1Cl`, the GI50 [29] was 10.8 µM and the TGI [29] was 42.4 µM.
